Test results as given in patent US20070287689A1, “Therapeutic And/Or Preventive Agents For Chronic Skin Diseases” (KYOWA HAKKO KOGYO CO., LTD., priority 2004, published 2007).
Marks after values point to notes of the source that are not given here.

Legend:
[1] = test system: chronic dermatitis models; settings: Non-patent Document 2; cited from earlier work
[2] = test system: delayed-type allergic reaction in the skin; settings: animal model; Non-patent Document 1; cited from earlier work
[3] = test system: oxazolone-induced ear swelling; assay: Inhibitory effects on oxazolone-induced ear swelling in mice (Test Example 2); type: in vivo; settings: dose 1.2 μg/site, 0.03 mg/mL in acetone applied to inner and outer side of the ear 3 hours before and 2 hours after inducing the reaction, ear thickness 24 hours after induction, BALB/c mice
Description: Six-week-old BALB/c mice (male, Charles River Japan, Inc.) were purchased. […] The mice were placed in plastic cages (6 mice per cage) in a breeding room which was kept at a room temperature (19 to 25° C.) and a humidity of 30 to 70% and was illuminated for 12 hours a day (from 7:00 a.m. to 7:00 p.m.). The mice were allowed to freely intake commercially available pellets and water.
As an antigen solution, Oxazolone (Sigma-Aldrich) was dissolved in acetone (Kanto Kagaku) to prepare 0.5 w/v % of oxazolone-acetone solution. BALB/c mice were each applied with 100 μL of the antigen solution to the shaved abdomen for sensitization. Mice were shaved on abdomen on the previous day of the sensitization. […] Ear thickness was measured with a dial thickness gauge (Ozaki Seisakusho) just before and 24 hours after inducing the reaction, and the difference in the thickness was used as an indication of ear swelling. The inhibition ratio (%) against ear swelling was calculated using the following: Inhibition ratio (%)=[{(value in positive control group)−(value in test compound administration group)}/{(value in positive control group)−(value in negative control group)}]×100 Test compound administration group: Compound (I) administration group, prednisolone administration group or combined administration group

Row | SMILES | Therapeutic effects on chronic dermatitis models [1] | Effect on delayed-type allergic reaction in the skin [2] | Inhibition Ratio (ear swelling) [3] [%] | Inhibition Ratio (ear swelling) ([3]; listed as Predonisolone) [%***]
1 | COc1ccc([C@]2(C#N)CC[C@@H](C(=O)O)CC2)cc1OC1CCCC1 [SB207499] | exhibit therapeutic effects | inhibit a delayed-type allergic reaction in the skin | – | –
2 | C[C@]12C=CC(=O)C=C1CC[C@@H]1[C@@H]2[C@@H](O)C[C@@]2(C)[C@H]1CC[C@]2(O)C(=O)CO [prednisolone] | – | – | 18 | 18
